Results reported in US10849956B2, “Glycopeptide compositions” (priority 2014, dated 2020).
Converted amounts (≈) assume the structure as drawn. Read-outs that look alike come from different tables or passages of the source.

Tests used:
[1] = test system: Enterococcus faecalis ATCC 29212; assay: Antibacterial susceptibility testing, broth dilution method (CLSI); format: cell-based; settings: ATCC29212, Table 6, solutions stored at 25 degrees Celsius for the test period in days indicated
Description: (§1) Testing was performed using broth dilution method according to Clinical and Laboratory Standards Institute (CLSI) guidelines M100-S23/S24; M07-A9, the disclosure of which is herein incorporated by reference.
(§2) The antibiotic activity of eight aqueous pharmaceutical compositions was determined and compared to the activity of the injectable reference finished product, Vancocin, manufactured by Flynn Pharma Ltd. Antibiotic activity was determined against quality control strains: Staphylococcus aureus ATCC 29213, Enterococcus faecalis ATCC 29212 and Streptococcus pnemoniae ATCC 49619.

[2] = test system: Staphylococcus aureus ATCC 29213; assay: as above; format: cell-based; settings: ATCC29213, Table 6, solutions stored at 25 degrees Celsius for the test period in days indicated
Description: as §1, §2

[3] = test system: Streptococcus pnemoniae ATCC 49619; assay: as above; format: cell-based
Description: as §1, §2

[4] = cited from earlier work
[5] = multiple dosing of 500 mg Vancomycin infused over 30 minutes

Q: For `CC1(C)S[C@@H]2[C@H](NC(=O)[C@H](N)c3ccc(O)cc3)C(=O)N2[C@H]1C(=O)O` [Amoxicillin USP standard, Amoxicillin], which MIC [1] is on record?
A: 0.5 µg/mL (≈ 1.37 µM)

Q: What about the MIC [2] of the same compound?
A: 1 µg/mL (≈ 2.74 µM)

Q: What about the MIC ([3]; Table 6, solutions stored at 25 degrees Celsius for the test period in days indicated, read-out: Streptococcus pneumoniae MIC) of the same compound?
A: 0.06 µg/mL (≈ 0.164 µM)

Q: Which MIC ([3]; read-out: Streptococcus pneumoniae MIC (μg/mL)) does the source give for `CN[C@H](CC(C)C)C(=O)N[C@H]1C(=O)N[C@@H](CC(N)=O)C(=O)N[C@H]2C(=O)N[C@H]3C(=O)N[C@H](C(=O)N[C@H](C(=O)O)c4cc(O)cc(O)c4-c4cc3ccc4O)[C@H](O)c3ccc(c(Cl)c3)Oc3cc2cc(c3O[C@@H]2O[C@H](CO)[C@@H](O)[C@H](O)[C@H]2O[C@H]2C[C@](C)(N)[C@H](O)[C@H](C)O2)Oc2ccc(cc2Cl)[C@H]1O` [Vancomycin USP standard, Vancomycin] here?
A: 0.125 µg/mL (≈ 0.0863 µM)

Q: Which results are given for `CN[C@H](CC(C)C)C(=O)N[C@H]1C(=O)N[C@@H](CC(N)=O)C(=O)N[C@H]2C(=O)N[C@H]3C(=O)N[C@H](C(=O)N[C@@H](C(=O)O)c4cc(O)cc(O)c4-c4cc3ccc4O)[C@H](O)c3ccc(c(Cl)c3)Oc3cc2cc(c3O[C@@H]2O[C@@H](CO)[C@@H](O)[C@H](O)[C@@H]2O[C@@H]2C[C@](C)(N)[C@H](O)[C@@H](C)O2)Oc2ccc(cc2Cl)[C@H]1O` [Vancomycin]?
A: mean plasma concentration immediately after infusion ([4]; intravenous infusion of 1 gram Vancomycin (15 mg/kg) over 60 minutes): 63 micrograms/mL; mean plasma concentration at the completion of infusion [4, 5]: about 49 microgram/mL; mean plasma concentration six hours after infusion [4, 5]: about 10 microgram/mL; mean plasma concentration two hours after infusion [4, 5]: about 19 microgram/mL
